Data on 25 substances can be found in the OligoGym collection.

HELM strings list units from the 5' end as sugar, base in round brackets, then linkage (d deoxyribose, r ribose, m 2'-O-methyl, p phosphodiester). Strings are as the collection lists them; they lack the last nucleoside at the 3' end of the tested compound. [moe] = 2'-O-(2-methoxyethyl) (MOE); [sp] = phosphorothioate linkage; [m5C] = 5-methylcytosine

The data set addresses PRNP. Nature of the data set: mouse, dose not given. The note with it: ASO.

“RNA1{[moe](G)[sp].[moe](T)p.[moe]([m5C])p.[moe](A)p.[moe](G)p.d(T)[sp].d(T)[sp].d(T)[sp].d(T)[sp].d(T)[sp].d([m5C])[sp].d([m5C])[sp].d([m5C])[sp].d([m5C])[sp].[moe](A)[sp].[moe]([m5C])p.[moe](A)p.[moe](T)}$$$$ (last 3' nucleoside missing)” showed a 3 h FOB score of 0 score 0-7.

“RNA1{[moe](G)[sp].[moe](T)p.[moe]([m5C])p.[moe](A)p.[moe](G)p.d(T)[sp].d(T)[sp].d(T)[sp].d(T)[sp].d(T)[sp].d([m5C])[sp].d([m5C])[sp].d([m5C])[sp].d([m5C])[sp].[moe](A)p.[moe]([m5C])p.[moe](A)[sp].[moe](T)}$$$$ (last 3' nucleoside missing)” gave a 3 h FOB score of 0 score 0-7.

Substance “RNA1{[moe](G)[sp].[moe](T)p.[moe]([m5C])p.[moe](A)p.[moe](T)[sp].d(A)[sp].d(A)[sp].d(T)[sp].d(T)[sp].d(T)[sp].d(T)[sp].d([m5C])[sp].d(T)[sp].d(T)[sp].d(A)[sp].[moe](G)p.[moe]([m5C])p.[moe](T)[sp].[moe](A)}$$$$ (last 3' nucleoside missing)” had a 3 h FOB score of 0 score 0-7. As for “RNA1{[moe](G)[sp].[moe](T)p.[moe]([m5C])p.[moe](A)p.[moe](T)p.[moe](A)p.d(A)[sp].d(T)[sp].d(T)[sp].d(T)[sp].d(T)[sp].d([m5C])[sp].d(T)[sp].d(T)[sp].d(A)[sp].d(G)[sp].[moe]([m5C])p.[moe](T)[sp].[moe](A)}$$$$ (last 3' nucleoside missing)”, the figure is 2.5 score 0-7. As for “RNA1{[moe](G)[sp].[moe](T)p.[moe]([m5C])p.[moe](A)p.[moe](T)p.d(A)[sp].d(A)[sp].d(T)[sp].d(T)[sp].d(T)[sp].d(T)[sp].d([m5C])[sp].d(T)[sp].d(T)[sp].[moe](A)[sp].[moe](G)p.[moe]([m5C])p.[moe](T)}$$$$ (last 3' nucleoside missing)”, the figure is 0 score 0-7; as for “RNA1{[moe](G)[sp].[moe](T)p.[moe]([m5C])p.[moe](A)p.d(G)[sp].d(T)[sp].d(T)[sp].d(T)[sp].d(T)[sp].d(T)[sp].d([m5C])[sp].d([m5C])[sp].d([m5C])[sp].d([m5C])[sp].[moe](A)p.[moe]([m5C])p.[moe](A)p.[moe](T)[sp].[moe](A)}$$$$ (last 3' nucleoside missing)”, 0 score 0-7; as for “RNA1{[moe](G)[sp].[moe](T)p.[moe]([m5C])p.[moe](A)p.d(T)[sp].d(A)[sp].d(A)[sp].d(T)[sp].d(T)[sp].d(T)[sp].d(T)[sp].d([m5C])[sp].d(T)[sp].d(T)[sp].[moe](A)p.[moe](G)p.[moe]([m5C])p.[moe](T)[sp].[moe](A)}$$$$ (last 3' nucleoside missing)”, 0.25 score 0-7. As for “RNA1{[moe](G)[sp].[moe](T)p.[moe]([m5C])p.[moe]([m5C])p.[moe](A)[sp].d(A)[sp].d(A)[sp].d(A)[sp].d(A)[sp].d(T)[sp].d(A)[sp].d(A)[sp].d(G)[sp].d(T)[sp].d([m5C])[sp].[moe]([m5C])p.[moe](A)p.[moe](G)[sp].[moe](A)}$$$$ (last 3' nucleoside missing)”, the figure is 1 score 0-7; as for “RNA1{[moe](G)[sp].[moe](T)p.[moe]([m5C])p.[moe]([m5C])p.[moe](A)[sp].d(T)[sp].d(T)[sp].d(T)[sp].d(T)[sp].d([m5C])[sp].d(T)[sp].d(G)[sp].d(T)[sp].d(G)[sp].d([m5C])[sp].[moe](T)p.[moe](T)p.[moe](T)[sp].[moe](T)}$$$$ (last 3' nucleoside missing)”, 4.5 score 0-7.

Take “RNA1{[moe](G)[sp].[moe](T)p.[moe]([m5C])p.d(A)[sp].d(G)[sp].d(T)[sp].d(T)[sp].d(T)[sp].d(T)[sp].d(T)[sp].d([m5C])[sp].d([m5C])[sp].d([m5C])[sp].[moe]([m5C])p.[moe](A)p.[moe]([m5C])p.[moe](A)p.[moe](T)[sp].[moe](A)}$$$$ (last 3' nucleoside missing)”: the 3 h FOB score stood at 0 score 0-7. The same measure for “RNA1{[moe](G)[sp].[moe]([m5C])[sp].[moe]([m5C])[sp].[moe](A)[sp].[moe]([m5C])[sp].d(A)[sp].d(T)[sp].d(A)[sp].d(T)[sp].d(A)[sp].d(G)[sp].d(G)[sp].d(G)[sp].d(T)[sp].d([m5C])[sp].[moe]([m5C])[sp].[moe](T)[sp].[moe](T)[sp].[moe](T)}$$$$ (last 3' nucleoside missing)”: 4.25 score 0-7. As for “RNA1{[moe](G)[sp].[moe]([m5C])p.[moe](A)p.[moe](A)p.[moe](G)[sp].d([m5C])[sp].d(A)[sp].d(G)[sp].d(T)[sp].d(T)[sp].d([m5C])[sp].d(T)[sp].d(T)[sp].d(T)[sp].d(T)[sp].[moe]([m5C])p.[moe](T)p.[moe](T)[sp].[moe](T)}$$$$ (last 3' nucleoside missing)”, the figure is 6 score 0-7. As for “RNA1{[moe](G)[sp].[moe]([m5C])p.[moe](A)p.[moe](A)p.[moe]([m5C])[sp].d(G)[sp].d(G)[sp].d([m5C])[sp].d(T)[sp].d([m5C])[sp].d(A)[sp].d(T)[sp].d(G)[sp].d(A)[sp].d(T)[sp].[moe](G)p.[moe](A)p.[moe](A)[sp].[moe]([m5C])}$$$$ (last 3' nucleoside missing)”, the figure is 3.5 score 0-7; as for “RNA1{[moe](G)[sp].[moe]([m5C])p.[moe](A)p.[moe](G)p.[moe](A)[sp].d(A)[sp].d(A)[sp].d(G)[sp].d(T)[sp].d(A)[sp].d(G)[sp].d([m5C])[sp].d(T)[sp].d(A)[sp].d(T)[sp].[moe]([m5C])p.[moe](A)p.[moe](T)[sp].[moe](T)}$$$$ (last 3' nucleoside missing)”, 4.25 score 0-7; as for “RNA1{[moe](G)[sp].[moe]([m5C])p.[moe](A)p.[moe]([m5C])p.[moe](A)[sp].d([m5C])[sp].d(T)[sp].d(G)[sp].d(A)[sp].d([m5C])[sp].d([m5C])[sp].d(A)[sp].d(T)[sp].d(T)[sp].d(T)[sp].[moe](T)p.[moe](T)p.[moe](T)[sp].[moe](A)}$$$$ (last 3' nucleoside missing)”, 0 score 0-7.

For the substance “RNA1{[moe](G)[sp].[moe]([m5C])p.[moe](A)p.[moe]([m5C])p.[moe](A)p.[moe]([m5C])p.d(T)[sp].d(G)[sp].d(A)[sp].d([m5C])[sp].d([m5C])[sp].d(A)[sp].d(T)[sp].d(T)[sp].d(T)[sp].d(T)[sp].[moe](T)p.[moe](T)[sp].[moe](A)}$$$$ (last 3' nucleoside missing)”, the 3 h FOB score is 0 score 0-7. Regarding “RNA1{[moe](G)[sp].[moe]([m5C])p.[moe](A)p.[moe]([m5C])p.[moe](A)p.d([m5C])[sp].d(T)[sp].d(G)[sp].d(A)[sp].d([m5C])[sp].d([m5C])[sp].d(A)[sp].d(T)[sp].d(T)[sp].[moe](T)[sp].[moe](T)p.[moe](T)p.[moe](T)}$$$$ (last 3' nucleoside missing)”, the 3 h FOB score was 0 score 0-7.

“RNA1{[moe](G)[sp].[moe]([m5C])p.[moe](A)p.[moe]([m5C])p.d(A)[sp].d([m5C])[sp].d(T)[sp].d(G)[sp].d(A)[sp].d([m5C])[sp].d([m5C])[sp].d(A)[sp].d(T)[sp].d(T)[sp].[moe](T)p.[moe](T)p.[moe](T)p.[moe](T)[sp].[moe](A)}$$$$ (last 3' nucleoside missing)” had a 3 h FOB score of 2.25 score 0-7.

In turn, “RNA1{[moe](G)[sp].[moe]([m5C])p.[moe](T)p.[moe](A)p.[moe](G)[sp].d(G)[sp].d(T)[sp].d(G)[sp].d(A)[sp].d([m5C])[sp].d(A)[sp].d(A)[sp].d(T)[sp].d(A)[sp].d(T)[sp].[moe]([m5C])p.[moe](A)p.[moe](A)[sp].[moe](A)}$$$$ (last 3' nucleoside missing)” registered a 3 h FOB score of 0 score 0-7. As for “RNA1{[moe](G)[sp].[moe]([m5C])p.[moe](T)p.[moe](A)p.[moe](T)[sp].d(G)[sp].d(A)[sp].d(A)[sp].d(A)[sp].d(T)[sp].d([m5C])[sp].d(T)[sp].d([m5C])[sp].d(T)[sp].d(A)[sp].[moe]([m5C])p.[moe](T)p.[moe](A)[sp].[moe](A)}$$$$ (last 3' nucleoside missing)”, the figure is 2.5 score 0-7; as for “RNA1{[moe](G)[sp].[moe]([m5C])p.[moe](T)p.[moe](A)p.[moe](T)[sp].d([m5C])[sp].d(T)[sp].d(T)[sp].d(T)[sp].d([m5C])[sp].d(T)[sp].d(A)[sp].d(T)[sp].d(T)[sp].d(T)[sp].[moe](G)p.[moe](T)p.[moe](G)[sp].[moe](T)}$$$$ (last 3' nucleoside missing)”, 1 score 0-7; as for “RNA1{[moe](G)[sp].[moe]([m5C])p.[moe](T)p.[moe](T)p.[moe](A)[sp].d(A)[sp].d(T)[sp].d(T)[sp].d(A)[sp].d(G)[sp].d(T)[sp].d(T)[sp].d(A)[sp].d([m5C])[sp].d(A)[sp].[moe](T)p.[moe]([m5C])p.[moe](G)[sp].[moe](G)}$$$$ (last 3' nucleoside missing)”, 4.5 score 0-7. As for “RNA1{[moe](G)[sp].[moe]([m5C])p.[moe](T)p.[moe](T)p.[moe](A)[sp].d(T)[sp].d(T)[sp].d(A)[sp].d(T)[sp].d(T)[sp].d([m5C])[sp].d(A)[sp].d(T)[sp].d(G)[sp].d(T)[sp].[moe](T)p.[moe]([m5C])p.[moe](T)[sp].[moe]([m5C])}$$$$ (last 3' nucleoside missing)”, the figure is 3.5 score 0-7. The same measure for “RNA1{[moe](G)[sp].[moe]([m5C])p.[moe](T)p.[moe](T)p.[moe](A)[sp].d([m5C])[sp].d(T)[sp].d([m5C])[sp].d(G)[sp].d(G)[sp].d([m5C])[sp].d(T)[sp].d(T)[sp].d(G)[sp].d(T)[sp].[moe](T)p.[moe]([m5C])p.[moe]([m5C])[sp].[moe](A)}$$$$ (last 3' nucleoside missing)”: 5.25 score 0-7. For “RNA1{[moe](G)[sp].[moe]([m5C])p.[moe](T)p.[moe](T)p.[moe](A)p.[moe](T)p.d(T)[sp].d(A)[sp].d(T)[sp].d(T)[sp].d([m5C])[sp].d(A)[sp].d(T)[sp].d(G)[sp].d(T)[sp].d(T)[sp].[moe]([m5C])p.[moe](T)[sp].[moe]([m5C])}$$$$ (last 3' nucleoside missing)”, the 3 h FOB score was determined as 1.75 score 0-7.
